Test: In vitro drug release from drug-loaded MNs
Type: physicochemical
Details: from IPN hydrogel MNs, PBS pH 7.4, 37° C., 100 rpm, first 24 hours
Experimental: The drug-loaded MNs were soaked in 10 mL of PBS solution (pH 7.4) and put in a shaking incubator at 37° C. and 100 rpm to simulate the real drug release environment. About 2.5 mL of the release medium was withdrawn and replenished with an equivalent volume of PBS every half hour for the first 4 hours. Similarly, the released medium was collected at the 5th, 6th, 8th, 12th, and 24th hour followed by every 24 h for 7 days. Then, the cumulative drug released was determined by measuring the UV-Vis absorbance of DOX and LPS at 485 nm and 256 nm, respectively, and then calculated using the standard calibration curve of the free drugs, as shown in FIGS. 14A and B.
Drug release behavior of IPN hydrogel was examined. First, DOX and/or LPS were loaded into the hydrogel by simple mixing with IPN hydrogel pre-gel solution (0.5 mg DOX/MNs and 0.2 mg LPS/MNs) followed by casting MNs and sequential photo-ionic crosslinking to obtained drug loaded solid MNs arrays (DOX loaded MN, LPS loaded MN and LPS/DOX loaded MN). Then, drug loaded MNs were immersed in 10 mL PBS solution and kept in an orbital shaker incubator with a rotation of 100 rpm at 37° C.

Row | Compound | cumulative drug release [%]
1 | COc1cccc2c1C(=O)c1c(O)c3c(c(O)c1C2=O)C[C@@](O)(C(=O)CO)C[C@@H]3O[C@H]1C[C@H](N)[C@H](O)[C@H](C)O1 [DOX, doxorubicin] | ~66.1±7.4
2 | lipopolysaccharide [LPS] | ~59.4±5.5

— US12220550B2, “Transdermal delivery device, methods of using and making the same” (BUDDHIST TZU CHI MEDICAL FOUNDATION, priority 2021, dated 2025)
